Measurements published in patent publication US20070111988A1, “Selective estrogen receptor modulators” (ELI LILLY AND COMPANY, priority 2004, published 2007).

Columns and labels:
[1] = tested on: Ishikawa human endometrial tumor cells; assay: Ishikawa Cell Proliferation Assay, agonist mode (alkaline phosphatase readout); type: cell-based; conditions: for Emax: Homo sapiens, Ishikawa, versus the response to tamoxifen, read-out: relative % efficacy; for stimulation compared with tamoxifen: compound alone
Procedure: (§1) Ishikawa Cell Proliferation Assay: This assay measures cell proliferation (using an alkaline phosphatase readout) in both an agonist mode in the presence of a compound of the present invention alone, and in an antagonist mode in which the ability of a compound of the present invention to block estradiol stimulation of growth is measured.
(§2) Ishikawa human endometrial tumor cells are maintained in MEM (minimum essential medium, with Earle's salts and L-Glutamine, Gibco BRL, Gaithersburg, Md.), supplemented with 10% fetal bovine serum (FBS) (V/V), (Gibco BRL). One day prior to assay, growth media is changed to assay medium, DMEM/F-12 (3:1) (Dulbecco's Modified Eagle Medium:Nutrient Mixture F-12, 3:1 Mixture, phenol red-free, Gibco BRL) supplemented with 5% dextran coated charcoal stripped fetal bovine serum (DCC-FBS) (Hyclone, Logen, Utah), L-Glutamine (2 mM), MEM sodium pyruvate (1 mM), HEPES (N-[2-hydroxyethyl]piperazine-N′-[2-ethanesulfonic acid] 2 mM) all from Gibco BRL). After an overnight incubation, Ishikawa cells are rinsed with Dulbecco's Phosphate Buffered Saline (1×) (D-PBS) without Ca^+2 and Mg^+2 (Gibco BRL), and trypsinized by a 3 minute incubation with 0.25% Trypsin/EDTA, phenol red-free (Gibco BRL). Cells are resuspended in assay medium and adjusted to 250,000 cells/mL. Approximately 25,000 cells in a 100 ul media are added to flat-bottom 96 wells microculture plates (Costar 3596) and incubated at 37° C. in a 5% CO2 humidified incubator for 24 hours. The next day, serial dilutions of compounds are prepared in assay medium (at 6 times the final concentration in the assay). The assay is run in dual mode, agonist and antagonist modes.
For the agonist mode, plates receive 25 μl/well of assay medium followed by 25 μl/well of a diluted compound of the present invention (at 6× the final concentrations). For the antagonist mode, plates receive 25 μl/well of 6 nM E2 (β-Estradiol, Sigma, St. Louis, Mo.) followed by 25 μl/well of a diluted compound of the present invention (at 6× the final concentrations). After an additional 48-hour incubation at 37° C. in a 5% CO2 humidified incubator, media is aspirated from wells and 100 μl fresh assay medium is added to each microculture. Serial dilutions of compounds are prepared and added to the cells as described above. After an additional 72 hour incubation at 37° C. in a 5% CO2 humidified incubator, the assay is quenched by removing media and rinsing plates twice in Dulbecco's Phosphate Buffered Saline (1×) (D-PBS) (Gibco BRL). The plates are dried for 5 minutes and frozen at −70° C. for at least 1 hour. The plates are then removed from the freezer and allowed to thaw at room temperature. To each well, 100 μl of 1-Step™ PNPP (Pierce Chemical Company, Rockford, Ill.) is added. After a 20-minute incubation, plates are read on a spectophotometer at 405 nm.
(§3) The data is fitted to a linear interpolation to derive EC50 (for agonist mode) or IC50 (for antagonist mode) values. For the antagonist mode, a % efficacy for each compound is calculated versus E2 (1 nM) alone. For the agonist mode, a % efficacy for each compound is calculated versus the response to tamoxifen.

[2] = tested on: Ishikawa human endometrial tumor cells; assay: Ishikawa Cell Proliferation Assay, antagonist mode (block of estradiol stimulation); type: cell-based; conditions: for IC50: 1 nM E2; for Emax: versus E2 (1 nM) alone, read-out: % efficacy
Procedure: as §1, §2
For the agonist mode, plates receive 25 μl/well of assay medium followed by 25 μl/well of a diluted compound of the present invention (at 6× the final concentrations). For the antagonist mode, plates receive 25 μl/well of 6 nM E2 (β-Estradiol, Sigma, St. Louis, Mo.) followed by 25 μl/well of a diluted compound of the present invention (at 6× the final concentrations). After an additional 48-hour incubation at 37° C. in a 5% CO2 humidified incubator, media is aspirated from wells and 100 μl fresh assay medium is added to each microculture. Serial dilutions of compounds are prepared and added to the cells as described above. […] After a 20-minute incubation, plates are read on a spectophotometer at 405 nm.
as §3

[3] = tested on: estrogenic stimulation of the uterus in immature female rats; assay: 3-Day Rat Uterus Antagonist Assay; type: in vivo; conditions: 3 days, with E2 0.1 mg/kg; for inhibition of the estrogen-induced response (uterine weight/body weight ratio): 1.0 mg/kg oral; for % antagonism / ED50: oral
Source text: 3-Day Rat Uterus Antagonist Assay: This model for uterine antagonism utilizes immature (3 week old) female rats that are highly sensitive to estrogenic stimulation of the uterus given that their circulating estrogen levels are prepubertal. The uteri from immature rats are fully responsive to exogenous estrogen, yet are quiescent in the absence of exogenous estrogen. Administration of exogenous estrogen to immature rats produces a reliable elevation of uterine weight, which can be used to study uterine antagonist effects. The rats are treated with both estradiol and 4 different concentrations of a compound of the present invention for 3 days and then uterine wet weights are measured.
Nineteen to twenty-one day old (or 45-50 g) female rats are orally treated with E2 (0.1 mg/kg, a maximal stimulatory estrogenic stimulus for reliably increasing uterine weight) and 10, 1.0, 0.1 and 0.01 mg/kg test compound for 3 days, 6 rats per group. Test compounds are dissolved in 20% β-hydroxycyclodextrin and administered by oral gavage in a volume of 0.2 mL daily (15 min. prior to the ethynyl estradiol gavage). A vehicle control, E2 alone and E2+raloxifene are also done as controls. The animals are fasted overnight following the final dose. On the following morning, the animals are weighed, then euthanized (by carbon dioxide asphyxiation) and the uteri rapidly collected (via a mid-line ventral incision) and weighed.
Uterine weight/body weight ratios (UWR) are calculated for each animal. The percent inhibition of the estrogen-induced response is then calculated by the following formula: percent inhibition=100×(UWRestrogen−UWRtest compound/UWRestrogen−UWRcontrol). ED50 values are derived from a semi-log regression analysis of the linear aspect of the dose response curve. Both the UWR data and the percent inhibition data are statistically analyzed by one way analysis of variance (ANOVA) with post-hoc testing by Fisher's PLSD when indicated by a p≦0.05. Statistical analyses are performed using the Statview® 4.0 software package.

mature F344 female rats = assay: 10-Day Rat Hormone (Ovarian Stimulation) Screen; type: in vivo; conditions: oral gavage 10 days, serum about 2 hours after the 10th dose, RIA
Procedure: 10-Day Rat Hormone (Ovarian Stimulation) Screen: An initial, first screen for ovarian toxicity is conducted using a 10-day rat hormone study to measure estradiol and luteinizing hormone levels after compound administration. This screen is conducted by administering compound by oral gavage for 10 days to mature (9-10 week old) F344 female rats. Trunk blood is collected by rapid decapitation for evaluation of LH and estradiol levels approximately 2 hours after the 10th dose. Serum, obtained by centrifugation, is removed and stored frozen below −60° C. until assayed. Serum levels of LH and estradiol are measured using radioimmunoassay (RIA) methods.
Rat LH primary antibody and reference preparations (rat LH:RP-3) are obtained from Dr. A. F. Parlow, Director, Pituitary Hormones and Antisera Center, Harbor-UCLA Medical Center, Torrance, Calif. The LH assay upper limits of detection are 30 ng/mL and the lower limits of detection are 0.1 ng/mL for the 100 μl samples.
E2 Clinical Assays. DiaSorin s.r.l., Saluggia (Vercelli), Italy. The upper limit of detection is 1000 pg/mL and the lower limit of detection is 5 pg/mL.

[4] = tested on: uterus of mature, ovariectomized rats; assay: 4-Day OVX Rat Uterine Agonist Assay; type: in vivo; conditions: 4 days of treatment, 3 doses
Procedure: Seventy-five day old rats are ovariectomized and treatment is started 14 days later when circulating estradiol levels have reached minimal levels. After 4 days of treatment with 3 doses of a compound of the present invention, (6 rats per group) body weight, uterine wet weight and uterine eosinophil peroxidase (EPO) activity are measured. Cholesterol levels are also measured to compare relative ability to lower cholesterol with other SERMs. If there is any question of uterine stimulation, histological examination will determine epithelial cell height.

With `O=C(O)C(F)(F)F.O=C(O)c1cccc2c1OC(c1ccc(OCCN3CCCCC3)cc1)c1c-2ccc2cc(O)ccc12` (centres unmarked) [Example 35, 2-Hydroxy-5-[4-(2-piperidin-1-yl-ethoxy)-phenyl]-5H-6-oxa-chrysene-7-carboxylic acid trifluoroacetate] the Emax [1] was 25%, the “stimulation compared with tamoxifen” value [1] was “less stimulatory than tamoxifen” and the IC50 [2] was 36 nM. For the same compound, the Emax [2] was 92%.

In the case of `COC(=O)c1cccc(-c2ccc3cc(O)ccc3c2Oc2ccc(OCCN3CCCCC3)cc2)c1.Cl` [Example 2, 3-{6-Hydroxy-1-[4-(2-piperidin-1-yl-ethoxy)-phenoxy]-naphthalen-2-yl}-benzoic acid methyl ester hydrochloride], the “stimulation compared with tamoxifen” value [1] is reported as “less stimulatory than tamoxifen”.

In the case of `CN(C)C(=O)c1cccc(-c2ccc3cc(O)ccc3c2Oc2ccc(OCCN3CCCCC3)cc2)c1.Cl` [Example 8, 3-{6-Hydroxy-1-[4-(2-piperidin-1-yl-ethoxy)-phenoxy]-naphthalen-2-yl}-N,N-dimethylbenzamide, hydrochloride salt], the Emax [1] is reported as 15%, the “stimulation compared with tamoxifen” value [1] is reported as “less stimulatory than tamoxifen” and the “inhibition of the estrogen-induced response (uterine weight/body weight ratio)” value (from here on “inhibition … (uterine weight/body weight ratio)”) [3] is reported as “inhibit the estrogen-induced response”. It also gave an IC50 [2] of 9 nM and an Emax [2] of 95%.

With `COc1ccc2c3c(ccc2c1)-c1ccc(CO)cc1OC3c1ccc(OCCN2CCCCC2)cc1` (centres unmarked) [Example 36, {2-Methoxy-5-[4-(2-piperidin-1-yl-ethoxy)-phenyl]-5H-6-oxa-chrysen-8-yl}-methanol] the “stimulation compared with tamoxifen” value [1] was “less stimulatory than tamoxifen”.

With `O=C(O)C(F)(F)F.O=C(O)c1cccc(-c2ccc3cc(O)ccc3c2Oc2ccc(OCCN3CCCCC3)cc2)c1` [Example 3, 3-{6-Hydroxy-1-[4-(2-piperidin-1-yl-ethoxy)-phenoxy]-naphthalen-2-yl}-benzoic acid trifluoroacetate] the “stimulation compared with tamoxifen” value [1] was “less stimulatory than tamoxifen”.

`OCc1ccc2c(c1)OC(c1ccc(OCCN3CCCCC3)cc1)c1c-2ccc2cc(O)ccc12` (racemic) [Example 37, 8-Hydroxymethyl-5-[4-(2-piperidin-1-yl-ethoxy)-phenyl]-5H-6-oxa-chrysen-2-ol] was tested, and the “stimulation compared with tamoxifen” value [1] was “less stimulatory than tamoxifen”, the “inhibition … (uterine weight/body weight ratio)” value [3] was “inhibit the estrogen-induced response” and the “% antagonism” value [3] was 89%. For the same compound, the ED50 [3] was 0.06 mpk, the “circulating LH levels” value (mature F344 female rats) was “did not significantly elevate” and the circulating estradiol levels (mature F344 female rats) was “did not significantly elevate”.

In the case of `Cl.O=C1NCc2cc(-c3ccc4cc(O)ccc4c3Oc3ccc(OCCN4CCCCC4)cc3)ccc21` [Example 11, 5-{6-Hydroxy-1-[4-(2-piperidin-1-yl-ethoxy)-phenoxy]-naphthalen-2-yl}-2,3-dihydro-isoindol-1-one Hydrochloride], the “stimulation compared with tamoxifen” value [1] is reported as “less stimulatory than tamoxifen”, the “inhibition … (uterine weight/body weight ratio)” value [3] is reported as “inhibit the estrogen-induced response” and the “% antagonism” value [3] is reported as 79%. It also gave an ED50 [3] of 0.3 mpk.

`COc1ccc2c(Oc3ccc(OCCN4CCCCC4)cc3)c(-c3ccc(C(C)(C)O)cc3)ccc2c1` [Example 44] was tested, and the “stimulation compared with tamoxifen” value [1] was “less stimulatory than tamoxifen”.

For `Cl.NC(=O)c1cccc(-c2ccc3cc(O)ccc3c2Oc2ccc(OCCN3CCCCC3)cc2)c1` [Example 1, 3-{6-Hydroxy-1-[4-(2-piperidin-1-yl-ethoxy)-phenoxy]-naphthalen-2-yl}-benzamide hydrochloride], the “stimulation compared with tamoxifen” value [1] was “less stimulatory than tamoxifen”.

For `COC(=O)c1ccc(-c2ccc3cc(O)ccc3c2Oc2ccc(OCCN3CCCCC3)cc2)cc1.Cl` [Example 5, 4-{6-Hydroxy-1-[4-(2-piperidin-1-yl-ethoxy)-phenoxy]-naphthalen-2-yl}-benzoic acid methyl ester hydrochloride], the “uterine eosinophil peroxidase (EPO) activity” value [4] was “did not cause any dose-related statistically significant increase in EPO activity”, the “stimulation compared with tamoxifen” value [1] was “less stimulatory than tamoxifen” and the “inhibition … (uterine weight/body weight ratio)” value [3] was “inhibit the estrogen-induced response”. The “circulating LH levels” value (mature F344 female rats) was “did not significantly elevate” and the circulating estradiol levels (mature F344 female rats) was “did not significantly elevate”.

`OCc1ccc2c(c1)OC(c1ccc(OCCN3CCCCC3)cc1)c1c-2ccc2cc(O)ccc12` (centres unmarked) [Example 39, 8-Hydroxymethyl-5-[4-(2-piperidin-1-yl-ethoxy)-phenyl]-5H-6-oxa-chrysen-2-ol] was tested, and the “stimulation compared with tamoxifen” value [1] was “less stimulatory than tamoxifen”.

`Cl.O=C(O)c1ccc(-c2ccc3cc(O)ccc3c2Oc2ccc(OCCN3CCCCC3)cc2)cc1` [Example 6, 4-{6-Hydroxy-1-[4-(2-piperidin-1-yl-ethoxy)-phenoxy]-naphthalen-2-yl}-benzoic acid hydrochloride] was tested, and the “stimulation compared with tamoxifen” value [1] was “less stimulatory than tamoxifen”.

In the case of `Cl.OCc1ccc(-c2ccc3cc(O)ccc3c2Oc2ccc(OCCN3CCCCC3)cc2)cc1` [Example 41, 6-(4-Hydroxymethyl-phenyl)-5-[4-(2-piperidin-1-yl-ethoxy)-phenoxy]-naphthalen-2-ol, hydrochloride], the “stimulation compared with tamoxifen” value [1] is reported as “less stimulatory than tamoxifen”.
